This note sets out measurements from patent publication US20260274833A1 (NiKang Therapeutics, Inc., priority 2022, published 2026).

In general, IC50 refers to the midpoint of a concentration-inhibition curve.

The target of this assay is T1, CDK2 (Homo sapiens, UniProt P24941).
T1 construct: endogenous in cells; host or cells: OVCAR3 cells
Kind of assay: Phospho-RB measurement in OVCAR3 cells (HTRF phospho-RB cellular kit). Format: cell-based. Conditions: inhibition of RB phosphorylation at S807/811 (HTRF, TR-FRET ratio 665/620), 24 h compound treatment, 0.3 to 10,000 nM. The method, boiled down:
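IC50 came from a four-parameter logistic fit of the DMSO-normalized TR-FRET ratio (665/620 nm). That ratio reflects RB phosphorylation at S807/811, read with an HTRF antibody pair 4 h after adding lysate at room temperature.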
On the technique in general: Time-resolved FRET reads energy transfer from a long-lived donor to a nearby acceptor.
Take `CC(C)(C)c1nc(-c2cccc(NS(=O)(=O)N3Cc4ccccc4C3)c2F)c(-c2ccnc(NC3CCN(S(=O)(=O)N4CCNCC4)CC3)n2)s1` [Example 113, N-(3-(2-(tert-butyl)-5-(2-((1-(piperazin-1-ylsulfonyl)piperidin-4-yl)amino)-pyrimidin-4-yl)thiazol-4-yl)-2-fluoro-phenyl)isoindoline-2-sulfonamide]: the IC50 was determined as 120 nM.
For `CS(=O)(=O)[C@H]1CC[C@H](Nc2nccc(-c3sc(C45CC(C(F)(F)F)(C4)C5)nc3-c3cccc(NS(=O)(=O)N4CCc5ccc(C(F)(F)F)cc54)c3F)n2)CC1` [Example 55, N-(2-fluoro-3-(5-(2-(((1r, 4r)-4-(methylsulfonyl)cyclohexyl)amino)pyrimidin-4-yl)-2-(3-(trifluoromethyl)bicyclo-[1.1.1]-pentan-1-yl)thiazol-4-yl)phenyl)-6-(trifluoromethyl) indoline-1-sulfonamide], the IC50 was determined as 525 nM.
The value for `CC(C)(C)c1nc(-c2cccc(NS(=O)(=O)N3CCOc4ccccc4C3)c2F)c(-c2ccnc(NC3CCN(S(=O)(=O)N4CCNCC4)CC3)n2)s1` [Example 115, N-(3-(2-(tert-butyl)-5-(2-((1-(piperazin-1-ylsulfonyl)piperidin-4-yl)amino)-pyrimidin-4-yl)thiazol-4-yl)-2-fluorophenyl)-2,3-dihydrobenzo [f][1,4]-oxazepine-4(5H)-sulfonamide] was 636 nM; that for `CC(C)(C)OC(=O)N1CCN(S(=O)(=O)Nc2cccc(-c3nc(C(C)(C)C)sc3-c3ccnc(NC4CCN(S(C)(=O)=O)CC4)n3)c2F)c2ccccc21` [Example 101, tert-butyl 4-(N-(3-(2-(tert-butyl)-5-(2-((1-(methylsulfonyl)piperidin-4-yl)amino)-pyrimidin-4-yl)thiazol-4-yl)-2-fluorophenyl)-sulfamoyl)-3,4-dihydroquinoxaline-1(2H)-carboxylate] was 1830 nM; that for `CC(C)(C)c1nc(-c2cccc(NS(=O)(=O)N3Cc4ccccc4C3)c2F)c(-c2ccnc(NC3CCN(S(C)(=O)=O)CC3)n2)s1` [Example 69] was 88.9 nM.
In the case of `CNS(=O)(=O)N1CCC(Nc2nccc(-c3sc(C(C)(C)C)nc3-c3cccc(NS(=O)(=O)N4Cc5ccccc5C4)c3F)n2)CC1` [Example 75, N-(3-(2-(tert-butyl)-5-(2-((1-(N-methylsulfamoyl)piperidin-4-yl)amino)-pyrimidin-4-yl)thiazol-4-yl)-2-fluoro-phenyl)-isoindoline-2-sulfonamide] it was 65 nM; in that of `CC(C)(C)c1nc(-c2cccc(NS(=O)(=O)N3CCc4ccccc4CC3)c2F)c(-c2ccnc(NC3CCN(S(C)(=O)=O)CC3)n2)s1` [Example 81, N-(3-(2-(tert-butyl)-5-(2-((1-(methylsulfonyl)-piperidin-4-yl)amino)-pyrimidin-4-yl)thiazol-4-yl)-2-fluoro-phenyl)-1,2,4,5-tetrahydro-3H-benzo[d]azepine-3-sulfonamide], 3730 nM; in that of `CC(C)(C)c1nc(-c2cccc(NS(=O)(=O)N3CCn4cncc4C3)c2F)c(-c2ccnc(NC3CCN(S(C)(=O)=O)CC3)n2)s1` [Example 83, N-(3-(2-(tert-butyl)-5-(2-((1-(methylsulfonyl)-piperidin-4-yl)amino)-pyrimidin-4-yl)thiazol-4-yl)-2-fluoro-phenyl)-5,6-dihydroimidazo [1,5-a]-pyrazine-7 (8H)-sulfonamide], 1470 nM.
The value for `C[C@@H]1c2ccccc2CN1S(=O)(=O)Nc1cccc(-c2nc(C(C)(C)C)sc2-c2ccnc(NC3CCN(S(C)(=O)=O)CC3)n2)c1F` [Example 130, (R)-N-(3-(2-(tert-butyl)-5-(2-((1-(methyl-sulfonyl)piperidin-4-yl)amino)-pyrimidin-4-yl)thiazol-4-yl)-2-fluoro-phenyl)-1-methyliso-indoline-2-sulfonamide] was 268 nM; that for `CN1CCN(S(=O)(=O)N2CCC(Nc3nccc(-c4sc(C(C)(C)C)nc4-c4cccc(NS(=O)(=O)N(C)C5CCC5)c4F)n3)CC2)CC1` [Example 111, N-(3-(2-(tert-butyl)-5-(2-((1-((4-methylpiperazin-1-yl)sulfonyl)piperidin-4-yl)amino)pyrimidin-4-yl)thiazol-4-yl)-2-fluorophenyl)-(N-methyl-N-cyclobutylamine)-sulfonamide] was 908 nM.
Take `CC(C)(C)c1nc(-c2cccc(NS(=O)(=O)N3Cc4cccc(F)c4C3)c2F)c(-c2ccnc(NC3CCN(S(C)(=O)=O)CC3)n2)s1` [Example 71, N-(3-(2-(tert-butyl)-5-(2-((1-(methylsulfonyl)-piperidin-4-yl)amino)-pyrimidin-4-yl)thiazol-4-yl)-2-fluoro-phenyl)-4-fluoroisoindoline-2-sulfonamide]: the IC50 stood at 76 nM.
For the compound `CC(C)(C)c1nc(-c2cccc(NS(=O)(=O)N3Cc4ccc(F)cc4C3)c2F)c(-c2ccnc(NC3CCN(S(C)(=O)=O)CC3)n2)s1` [Example 70, N-(3-(2-(tert-butyl)-5-(2-((1-(methylsulfonyl)-piperidin-4-yl)amino)-pyrimidin-4-yl)thiazol-4-yl)-2-fluoro-phenyl)-5-fluoroisoindoline-2-sulfonamide], the IC50 was found to be 94 nM.
As for `N#Cc1ccc2c(c1)N(S(=O)(=O)Nc1cccc(-c3nc(C45CC(C4)C5)sc3-c3ccnc(N[C@H]4[C@@H]5CS(=O)(=O)C[C@@H]54)n3)c1F)CC2` [Example 14, N-(3-(2-(bicyclo [1.1.1]pentan-1-yl)-5-(2-(((1R,5S,6r)-3,3-dioxido-3-thiabicyclo-[3.1.0]-hexan-6-yl)amino)pyrimidin-4-yl)thiazol-4-yl)-2-fluorophenyl)-6-cyanoindoline-1-sulfonamide], the IC50 came to 124 nM.
In the case of `CC(C)(C)c1nc(-c2cccc(NS(=O)(=O)N3CCC4(CCC4)C3)c2F)c(-c2ccnc(NC3CCN(S(=O)(=O)N4CCNCC4)CC3)n2)s1` [Example 177, N-(3-(2-(tert-butyl)-S-(2-((1-(piperazin-1-ylsulfonyl)piperidin-4-yl)amino)-pyrimidin-4-yl)thiazol-4-yl)-2-fluoro-phenyl)-6-azaspiro[3.4] octane-6-sulfonamide] it was 1020 nM; in that of `CC(C)(C)c1nc(-c2cccc(NS(=O)(=O)N3Cc4ccc(CO)cc4C3)c2F)c(-c2ccnc(NC3CC4(C3)CS(=O)(=O)C4)n2)s1` [Example 231, N-(3-(2-(tert-butyl)-5-(2-((2,2-dioxido-2-thiaspiro[3.3]heptan-6-yl)amino)-pyrimidin-4-yl)thiazol-4-yl)-2-fluorophenyl)-5-(hydroxymethyl)-isoindoline-2-sulfonamide], 77.4 nM.
The value for `CC(C)(C)c1nc(-c2cccc(NS(=O)(=O)N3CCc4ccc(C#N)cc43)c2F)c(-c2ccnc(Nc3ccc(N4CCN(C5COC5)CC4)cc3)n2)s1` [Example 250, N-(3-(2-(tert-butyl)-5-(2-((4-(4-(oxetan-3-yl)-piperazin-1-yl)phenyl)amino)-pyrimidin-4-yl)thiazol-4-yl)-2-fluoro-phenyl)-6-cyanoindoline-1-sulfonamide] was 576 nM.
In the case of `CC(C)(C)c1nc(-c2cccc(NS(=O)(=O)N3Cc4ccccc4C3c3ccccc3)c2F)c(-c2ccnc(NC3CC4(C3)CS(=O)(=O)C4)n2)s1` (stereo not shown) [Example 208, N-(3-(2-(tert-butyl)-5-(2-((2,2-dioxido-2-thiaspiro[3.3]heptan-6-yl)amino)-pyrimidin-4-yl)thiazol-4-yl)-2-fluoro-phenyl)-1-phenylisoindoline-2-sulfonamide] it was 3690 nM; in that of `CN(C)CCN(C)S(=O)(=O)N1CCC(Nc2nccc(-c3sc(C(C)(C)C)nc3-c3cccc(NS(=O)(=O)N4CCc5ccc(C#N)cc54)c3F)n2)CC1` [Example 122, N-(3-(2-(tert-butyl)-5-(2-((1-(N-(2-(dimethylamino)ethyl)-N-methylsulfamoyl)-piperidin-4-yl)amino)-pyrimidin-4-yl)thiazol-4-yl)-2-fluoro-phenyl)-6-cyanoindoline-1-sulfonamide], 54 nM; in that of `CC(C)(C)c1nc(-c2cccc(NS(=O)(=O)N3CCc4ccccc43)c2F)c(-c2ccnc(NC3CC4(C3)CS(=O)(=O)C4)n2)s1` [Example 192, N-(3-(2-(tert-butyl)-5-(2-((2,2-dioxido-2-thiaspiro[3.3]heptan-6-yl)amino)-pyrimidin-4-yl)thiazol-4-yl)-2-fluoro-phenyl)indoline-1-sulfonamide], 88.2 nM.
In the case of `O=S1(=O)CC2(CC(Nc3nccc(-c4sc(N5C6CCC5CN(CC(F)(F)F)C6)nc4-c4cccc(NS(=O)(=O)N5CCc6ccccc65)c4F)n3)C2)C1` [Example 38, N-(3-(5-(2-((2,2-dioxido-2-thiaspiro-[3.3]-heptan-6-yl)amino)pyrimidin-4-yl)-2-(3-(2,2,2-trifluoroethyl)-3,8-diazabicyclo[3.2.1]-octan-8-yl)thiazol-4-yl)-2-fluorophenyl)-indoline-1-sulfonamide], the IC50 was 263 nM.
As to `CC1CCCN(S(=O)(=O)Nc2cccc(-c3nc(C(C)(C)C)sc3-c3ccnc(NC4CCN(S(C)(=O)=O)CC4)n3)c2F)C1` (stereo not shown) [Example 62, N-(3-(2-(tert-butyl)-5-(2-((1-(methylsulfonyl)-piperidin-4-yl)amino)-pyrimidin-4-yl)thiazol-4-yl)-2-fluoro-phenyl)-3-methylpiperidine-1-sulfonamide], the IC50 turned out to be 3170 nM.
Consider `O=S1(=O)CC2(CC(Nc3nccc(-c4sc(C56CC(C5)C6)nc4-c4cccc(NS(=O)(=O)N5CCc6ccc(C(F)(F)F)cc65)c4F)n3)C2)C1` [Example 19, N-(3-(2-(bicyclo [1.1.1]pentan-1-yl)-5-(2-((2,2-dioxido-2-thiaspiro[3.3]heptan-6-yl)amino)-pyrimidin-4-yl)thiazol-4-yl)-2-fluorophenyl)-6-(trifluoromethyl)-indoline-1-sulfonamide], for which the IC50 was 120 nM.
